Like-named read-outs stand apart in the source and are kept apart here.

Data set [1] in a line: Initial single dose Maximum Tolerated Dose (MTD) study, 28 days. Format: in vivo, mice. Particulars: mouse, in vivo, intravenous. The procedure: In our initial single dose Maximum Tolerated Dose (MTD) study, groups of five normal mice were administered intravenous bolus doses of Suc-Ile-Ala-Leu-Dox. The mice were observed daily for 28 days and body weights measured twice weekly.
The mice were observed daily for 28 days and body weights measured twice weekly.
In the single dose Maximum Tolerated Dose (MTD) studies, groups of normal mice were administered intravenous bolus doses of the prodrug. The mice were observed daily for 28 days and body weights measured twice weekly. The MTD was estimated to be equal to the highest dose that produced no death in mice after 28 days.

A short description of data set [2]: Repeat-dose tolerance (RD-MTD) in tumor bearing mice. The format is in vivo. The note with it: mouse, in vivo, corrected results. The procedure: In repeat-dose studies in tumor bearing mice, groups of ten mice were dosed with various amounts of prodrug for a total of five doses at either five day or 1 week intervals.
Data set [3] deals with carcinoma cell trouase (MCF 7/6 cell homogenate, MCF 7/6 conditioned media, HeLa cell extract anion exchange fraction pool). The data set is described as follows: Cleavage assay with carcinoma cell enzyme (trouase) preparations. The format is biochemical, human. The note with it: under appropriate assay conditions. Here is the method: A good candidate for a prodrug with improved therapeutic index is activated by cancer cells but relatively stable in whole human blood. Three different preparations of carcinoma cell trouase were used to screen various test compounds. These three preparations were as follows:
(a) MCF 7/6 (breast carcinoma) cell homogenate
(b) MCF 7/6 (breast carcinoma) conditioned media, and
(c) HeLa (cervical carcinoma) cell extract anion exchange fraction pool.
MCF 7/6 cells were grown to confluence in a serum free medium containing DMEM:F12 (1:1), 50 mg/L bovine serum albumin, ITS-X (10 mg/L insulin, 5.5 mg/L transferrin, 6.7 μg/L Na selenite, 2 mg/L ethanolamine), and Lipid Concentrate (Gibco #21900-030)100 mL of cells were harvested by centrifugation at 4° C. 10,000×g, for 20 min and decanting the supernatant. The pellet was resuspended in 2 mL phosphate buffered saline (Gibco) and centrifuged at 18,000×g for 10 min. […]
A portion of the ultracentrifugation supernatant was diluted 2-fold with a 20 mM triethanolamine-HCl pH 7.2 buffer containing 0.01% (w/v) Triton X-100 and 0.02% (w/v) sodium azide (equilibration buffer). […] Its transformation into Ala-Leu-Dox was quantified by reverse phase high performance liquid chromatography utilizing fluorescence detection of the anthracycline moiety. […]

A short description of data set [4]: Metabolism and clearance in normal mice (plasma and urine, LC MS/MS). Format: in vivo.
Assay in data set [5]: as above
The format is in vivo. The procedure:
The metabolism and clearance of Suc-Ile-Ala-Leu-Dox was studied in normal mice. The mice were administered Suc-Ile-Ala-Leu-Dox at a single intravenous bolus dose of 117 mg/kg. Plasma samples were obtained at 1 and 4 hours. Plasma samples of 100 μl were transferred to Eppendorf tubes (1.5 mL) and an internal standard of daunorubicin (20 μL at 0.5 mg/ml) was added together with acetonitrile (400 μl). The tubes were capped and briefly vortexed followed by centrifugation at 14,000 rpm. 420 μl from each tube was removed and dried in vacuo. Each sample was reconstituted in 65 μl ammonium formate containing acetonitrile (20%) prior to analysis by reverse phase liquid chromatography in combination with tandem mass spectrometry (LC MS/MS).
Urine was collected at 2 and 24 hours post administration from pairs of mice in metabolic cages. Urine samples were diluted with ammonium formate containing acetonitrile (20%) to give a target analyte concentration within the practical range of the LC MS/MS assay. 30 μl of each diluted sample was placed in an Eppendorf tube (1.5 ml) and an internal standard of daunorubicin (20 μL at 0.5 mg/ml) was added together with 50 μl of ammonium formate containing acetonitrile (20%). Each sample was then analyzed by LC MS/MS.
An Agilent HP 1100. HPLC with DAD detector and Chemstation software was coupled to a PE Sciex API 365 mass spectrometer with an electrospray ion source.
HPLC was performed on a TSK-Gel Super ODS, […], 4.6×50 mm (TosoHaas) reversed phase column equipped with a […] C18 guard disc (Higgins Analytical) and stainless steel frit (Upchurch Scientific). Chromatography was performed at room temperature. The flow rate was 0.5 ml/min. Injection volume was 50 μl. Gradient elution was performed using a mobile phase of 20 mM ammonium formate with increasing amounts of acetonitrile. The API 365 was operated at 365° C. in a multiple reaction monitoring mode, set to monitor specific analyte parent-daughter ion pairs. Integration of chromatograms was performed by MacQuan software (PE Sciex) and quantitation of each analyte obtained by comparison to previously obtained calibration curves. Daunorubicin was used as an internal standard in all cases.
Percent of administered dose—plasma volume estimated at 40% of blood volume, which was calculated at 7% of animal's body weight.
Plasma samples were obtained at 1 and 4 hours from separate mice. Urine was collected at 2 and 24 hours post administration from pairs of mice in metabolic cages. The plasma and urine samples were prepared and analyzed as described in Example 4.
The source holds these as a separate data set.

Setting [6] is: after Suc-βAla-Ile-Ala-Leu-Dox 117 mg/kg single intravenous bolus.
[7] abbreviates: after Suc-Ile-Ala-Leu-Dox 117 mg/kg single intravenous bolus.

As for `COc1cccc2c1C(=O)c1c(O)c3c(c(O)c1C2=O)C[C@@](O)(C(=O)CO)C[C@@H]3O[C@H]1C[C@H](NC(=O)[C@H](CC(C)C)NC(=O)[C@H](C)NC(=O)[C@H](CC(C)C)NC(=O)CCC(=O)O)[C@H](O)[C@H](C)O1` [Suc-Leu-Ala-Leu-Dox, reference compound], the MTD at 28 days in data set [1] (28 days, uncorrected doses, read-out: SD MTD (mg/kg), Table 7) was more than 117 mg/kg; in data set [1] (SD MTD, doxorubicin equivalent dose, Table 8, value in parentheses, corrected results), 35 mg/kg; in data set [1] (SD MTD, molar equivalent dose of doxorubicin, Table 7, value in parentheses, uncorrected), more than 70 mg/kg; in data set [1] (corrected results, read-out: SD MTD (mg/kg), Table 8), 59 mg/kg. Besides, the MTD at 60 days turned out to be 31 mg/kg in data set [2] (Repeat Dose MTD, doxorubicin equivalent dose, Table 8, value in parentheses) and 52 mg/kg in data set [2] (Q 5D × 5 or Q 7D × 5, read-out: Repeat Dose MTD (mg/kg), Table 8). Further, the “Major Plasma Metabolite, Table 7” value (mouse, in vivo) is listed as “Leu-Dox”. Moreover, the “Major Plasma Metabolite, Table 8” value (mouse, in vivo) is listed as “Leu-Dox”.
With `COc1cccc2c1C(=O)c1c(O)c3c(c(O)c1C2=O)C[C@@](O)(C(C)=O)C[C@@H]3O[C@H]1C[C@H](NC(=O)[C@H](CC(C)C)NC(=O)[C@H](C)NC(=O)[C@H](CC(C)C)NC(=O)CCNC(=O)CCC(=O)O)[C@H](O)[C@H](C)O1` [succinyl-βAla-Leu-Ala-Leu-Daunorubicin, reference compound], the “cleavage activity of trouase” value in data set [3] was “readily cleaves”.
Take `COc1cccc2c1C(=O)c1c(O)c3c(c(O)c1C2=O)C[C@@](O)(C(=O)CO)C[C@@H]3O[C@H]1C[C@H](NC(=O)[C@H](CC(C)C)NC(=O)[C@H](C)NC(=O)[C@H](CC(C)C)NC(=O)CCNC(=O)CCC(=O)O)[C@H](O)[C@H](C)O1` [Suc-βAla-Leu-Ala-Leu-Dox, reference compound]: where the note is “mice”, the “Major Plasma Metabolite, Table 7” value is recorded as “Ala-Leu-Dox” and the “Major Plasma Metabolite, Table 8” value is “Ala-Leu-Dox”.
For the molecule `CC[C@H](C)[C@H](NC(=O)CCNC(=O)CCC(=O)O)C(=O)N[C@@H](C)C(=O)N[C@@H](CC(C)C)C(=O)N[C@H]1C[C@H](O[C@H]2C[C@](O)(C(C)=O)Cc3c(O)c4c(c(O)c32)C(=O)c2c(OC)cccc2C4=O)O[C@@H](C)[C@H]1O` [succinyl-βAla-Ile-Ala-Leu-Daunorubicin], the “cleavage activity of trouase” value in data set [3] is listed as “at least twenty-fold less active”.
Regarding `COc1cccc2c1C(=O)c1c(O)c3c(c(O)c1C2=O)C[C@@](O)(C(=O)CO)C[C@@H]3O[C@H]1C[C@H](NC(=O)[C@@H](N)CC(C)C)[C@H](O)[C@H](C)O1` [Leu-Dox], the “Plasma 1 hr, percent of administered dose” value in data set [4] (setting [6]) is listed as 0.04 % of administered dose; in data set [5] (setting [7]) it was 0.02 % of administered dose. The “Plasma 4 hr, percent of administered dose” value in data set [4] (setting [6]) and in data set [5] (setting [7]) was 0.00 % of administered dose in each case. Also, the “Urine 2 hr, percent of administered dose” value in data set [4] (after Suc-βAla-Ile-Ala-Leu-Dox 117 mg/kg, collected 0-2 hours) is 4.69 % of administered dose; in data set [5] (after Suc-Ile-Ala-Leu-Dox 117 mg/kg, collected 0-2 hours), 1.17 % of administered dose. In addition, the “Urine 24 hr, percent of administered dose” value was 2.29 % of administered dose in data set [4] (after Suc-βAla-Ile-Ala-Leu-Dox 117 mg/kg, collected 2-24 hours) and 2.25 % of administered dose in data set [5] (after Suc-Ile-Ala-Leu-Dox 117 mg/kg, collected 2-24 hours).
With `COc1cccc2c1C(=O)c1c(O)c3c(c(O)c1C2=O)C[C@@](O)(C(=O)CO)C[C@@H]3O[C@H]1C[C@H](NC(=O)[C@H](CC(C)C)NC(=O)[C@H](C)N)[C@H](O)[C@H](C)O1` [Ala-Leu-Dox], in data set [5] (mouse, in vivo), the “Plasma 1 hr, percent of administered dose” value is 0.00 % of administered dose; the “Plasma 4 hr, percent of administered dose” value is 0.00 % of administered dose; the “Urine 24 hr, percent of administered dose” value is given as 0.00 % of administered dose.

Source of the values: patent US7696313B2, “Prodrug compounds with isoleucine” (priority 2000, dated 2010).
